Literature values, collected in patent US9517268B2, “Process for producing inorganic particulate material” (MERCK PATENT GMBH, priority 2011, dated 2016).
In brackets after ≈: the same amount, converted by molar mass.

Details: pH 7

- solubility in aqueous solutions: 1 ng/mL (≈ 1.42 nM)
Structure (SMILES): CCC(C)n1ncn(-c2ccc(N3CCN(c4ccc(OCC5COC(Cn6cncn6)(c6ccc(Cl)cc6Cl)O5)cc4)CC3)cc2)c1=O (stereo not shown) [Itraconazole]
